In the OligoGym collection:
“And” between values parts separate entries of the source, which are not always exact repeats. Equal entries are not always repeated. HELM strings list units from the 5' end as sugar, base in round brackets, then linkage (d deoxyribose, r ribose, m 2'-O-methyl, p phosphodiester). Methylation of C is not given here. [moe] = 2'-O-(2-methoxyethyl) (MOE); [cEt] = constrained ethyl (cEt); [sp] = phosphorothioate linkage

Molecular target: HBV
Conditions: ASO

Substance	target mRNA inhibition (HepG2, 0.07 µM)	also measured
RNA1{[moe](G)[sp].[moe](A)[sp].[moe](A)[sp].d(C)[sp].d(T)[sp].d(G)[sp].d(G)[sp].d(A)[sp].d(G)[sp].d(C)[sp].d(C)[sp].d(A)[sp].[moe](C)[sp].[moe](C)[sp].[moe](A)[sp].[moe](G)}$$$$V2.0	51% and 39%	
RNA1{[moe](G)[sp].[moe](A)[sp].[moe](A)[sp].d(G)[sp].d(C)[sp].d(G)[sp].d(A)[sp].d(A)[sp].d(G)[sp].d(T)[sp].d(G)[sp].d(C)[sp].[moe](A)[sp].[moe](C)[sp].[moe](A)[sp].[moe](C)[sp].[moe](G)}$$$$V2.0	76% and 60%	
RNA1{[moe](G)[sp].[moe](A)[sp].[moe](G)[sp].[cEt](G)[sp].[cEt](T)[sp].d(G)[sp].d(A)[sp].d(A)[sp].d(G)[sp].d(C)[sp].d(G)[sp].d(A)[sp].[cEt](A)[sp].[cEt](G)[sp].[moe](T)[sp].[moe](G)[sp].[moe](C)}$$$$V2.0		target mRNA inhibition (HepG2, 0.009375 µM): 19%; target mRNA inhibition (HepG2, 0.01875 µM): 27%; target mRNA inhibition (HepG2, 0.0375 µM): 35%; target mRNA inhibition (HepG2, 0.075 µM): 48%; target mRNA inhibition (HepG2, 0.15 µM): 50%; target mRNA inhibition (HepG2, 0.3 µM): 63%
RNA1{[moe](G)[sp].[moe](A)[sp].[moe](G)[sp].[cEt](G)[sp].d(T)[sp].d(G)[sp].d(A)[sp].d(A)[sp].d(G)[sp].d(C)[sp].d(G)[sp].d(A)[sp].d(A)[sp].[cEt](G)[sp].[moe](T)[sp].[moe](G)[sp].[moe](C)}$$$$V2.0		target mRNA inhibition (HepG2, 0.009375 µM): 22%; target mRNA inhibition (HepG2, 0.01875 µM): 25%; target mRNA inhibition (HepG2, 0.0375 µM): 50%; target mRNA inhibition (HepG2, 0.075 µM): 69%; target mRNA inhibition (HepG2, 0.15 µM): 76%; target mRNA inhibition (HepG2, 0.3 µM): 88%
RNA1{[moe](G)[sp].[moe](A)[sp].[moe](G)[sp].[moe](A)[sp].[moe](A)[sp].d(G)[sp].d(T)[sp].d(C)[sp].d(C)[sp].d(A)[sp].d(C)[sp].d(C)[sp].d(A)[sp].d(C)[sp].[moe](G)[sp].[moe](A)[sp].[moe](G)}$$$$V2.0	20% and 13%	
RNA1{[moe](G)[sp].[moe](A)[sp].[moe](G)[sp].[moe](G)[sp].[moe](C)[sp].[moe](A)[sp].d(T)[sp].d(A)[sp].d(G)[sp].d(C)[sp].d(A)[sp].d(G)[sp].d(C)[sp].d(A)[sp].d(G)[sp].[moe](G)[sp].[moe](A)}$$$$V2.0	61% and 45%	
RNA1{[moe](G)[sp].[moe](A)[sp].[moe](G)[sp].[moe](G)[sp].[moe](C)[sp].d(A)[sp].d(T)[sp].d(A)[sp].d(G)[sp].d(C)[sp].d(A)[sp].d(G)[sp].d(C)[sp].d(A)[sp].[moe](G)[sp].[moe](G)[sp].[moe](A)}$$$$V2.0	47% and 43%	
RNA1{[moe](G)[sp].[moe](A)[sp].[moe](G)[sp].[moe](G)[sp].d(T)[sp].d(G)[sp].d(A)[sp].d(A)[sp].d(G)[sp].d(C)[sp].d(G)[sp].d(A)[sp].d(A)[sp].[moe](G)[sp].[moe](T)[sp].[moe](G)}$$$$V2.0	14% and 26%	
RNA1{[moe](G)[sp].[moe](A)[sp].[moe](G)[sp].[moe](T)[sp].d(T)[sp].d(C)[sp].d(C)[sp].d(G)[sp].d(C)[sp].d(A)[sp].d(G)[sp].d(T)[sp].d(A)[sp].[moe](T)[sp].[moe](G)[sp].[moe](G)[sp].[moe](A)}$$$$V2.0	62% and 51%	
RNA1{[moe](G)[sp].[moe](A)[sp].[moe](G)[sp].d(A)[sp].d(A)[sp].d(G)[sp].d(T)[sp].d(C)[sp].d(C)[sp].d(A)[sp].d(C)[sp].d(C)[sp].[moe](A)[sp].[moe](C)[sp].[moe](G)[sp].[moe](A)[sp].[moe](G)}$$$$V2.0	31% and 28%	
RNA1{[moe](G)[sp].[moe](A)[sp].[moe](G)[sp].d(G)[sp].d(C)[sp].d(A)[sp].d(T)[sp].d(A)[sp].d(G)[sp].d(C)[sp].d(A)[sp].d(G)[sp].d(C)[sp].[cEt](A)[sp].[cEt](G)[sp].[cEt](G)}$$$$V2.0	75% and 74%	
RNA1{[moe](G)[sp].[moe](A)[sp].[moe](T)[sp].[moe](G)[sp].d(A)[sp].d(G)[sp].d(G)[sp].d(C)[sp].d(A)[sp].d(T)[sp].d(A)[sp].d(G)[sp].d(C)[sp].[moe](A)[sp].[moe](G)[sp].[moe](C)}$$$$V2.0	34% and 35%	
RNA1{[moe](G)[sp].[moe](A)[sp].[moe](T)[sp].d(G)[sp].d(A)[sp].d(G)[sp].d(G)[sp].d(C)[sp].d(A)[sp].d(T)[sp].d(A)[sp].d(G)[sp].d(C)[sp].[cEt](A)[sp].[cEt](G)[sp].[cEt](C)}$$$$V2.0	56% and 66%	
RNA1{[moe](G)[sp].[moe](A)[sp].d(A)[sp].d(C)[sp].d(T)[sp].d(G)[sp].d(G)[sp].d(A)[sp].d(G)[sp].d(C)[sp].d(C)[sp].[moe](A)[sp].[moe](C)[sp].[moe](C)[sp].[moe](A)[sp].[moe](G)}$$$$V2.0	40% and 18%	
RNA1{[moe](G)[sp].[moe](A)[sp].d(A)[sp].d(G)[sp].d(C)[sp].d(G)[sp].d(A)[sp].d(A)[sp].d(G)[sp].d(T)[sp].d(G)[sp].[moe](C)[sp].[moe](A)[sp].[moe](C)[sp].[moe](A)[sp].[moe](C)}$$$$V2.0	71% and 64%	target mRNA inhibition (HepG2, 0.0092593 µM): 9%; target mRNA inhibition (HepG2, 0.0277778 µM): 34%; target mRNA inhibition (HepG2, 0.0833333 µM): 53%; target mRNA inhibition (HepG2, 0.25 µM): 81%
RNA1{[moe](G)[sp].[moe](A)[sp].d(G)[sp].d(G)[sp].d(T)[sp].d(G)[sp].d(A)[sp].d(A)[sp].d(G)[sp].d(C)[sp].d(G)[sp].[moe](A)[sp].[moe](A)[sp].[moe](G)[sp].[moe](T)[sp].[moe](G)[sp].[moe](C)}$$$$V2.0	67% and 63%	
RNA1{[moe](G)[sp].[moe](A)[sp].d(G)[sp].d(T)[sp].d(T)[sp].d(C)[sp].d(C)[sp].d(G)[sp].d(C)[sp].d(A)[sp].d(G)[sp].[moe](T)[sp].[moe](A)[sp].[moe](T)[sp].[moe](G)[sp].[moe](G)}$$$$V2.0	52% and 45%	
RNA1{[moe](G)[sp].[moe](C)[sp].[moe](A)[sp].[moe](C)[sp].[moe](T)[sp].d(A)[sp].d(G)[sp].d(T)[sp].d(A)[sp].d(A)[sp].d(A)[sp].d(C)[sp].d(T)[sp].d(G)[sp].[moe](A)[sp].[moe](G)}$$$$V2.0	60%	
RNA1{[moe](G)[sp].[moe](C)[sp].[moe](A)[sp].[moe](G)[sp].[moe](A)[sp].d(G)[sp].d(G)[sp].d(T)[sp].d(G)[sp].d(A)[sp].d(A)[sp].d(G)[sp].d(C)[sp].d(G)[sp].[moe](A)[sp].[moe](A)[sp].[moe](G)}$$$$V2.0	76% and 59%	
RNA1{[moe](G)[sp].[moe](C)[sp].[moe](A)[sp].[moe](G)[sp].[moe](T)[sp].d(A)[sp].d(T)[sp].d(G)[sp].d(G)[sp].d(A)[sp].d(T)[sp].d(C)[sp].d(G)[sp].d(G)[sp].[moe](C)[sp].[moe](A)}$$$$V2.0	67% and 61%	
RNA1{[moe](G)[sp].[moe](C)[sp].[moe](A)[sp].[moe](G)[sp].d(A)[sp].d(G)[sp].d(G)[sp].d(T)[sp].d(G)[sp].d(A)[sp].d(A)[sp].d(G)[sp].d(C)[sp].[moe](G)[sp].[moe](A)[sp].[moe](A)[sp].[moe](G)}$$$$V2.0	52%	
RNA1{[moe](G)[sp].[moe](C)[sp].[moe](A)[sp].[moe](G)[sp].d(T)[sp].d(A)[sp].d(T)[sp].d(G)[sp].d(G)[sp].d(A)[sp].d(T)[sp].d(C)[sp].d(G)[sp].[moe](G)[sp].[moe](C)[sp].[moe](A)}$$$$V2.0	69% and 61%	
RNA1{[moe](G)[sp].[moe](C)[sp].[moe](A)[sp].d(C)[sp].d(T)[sp].d(A)[sp].d(G)[sp].d(T)[sp].d(A)[sp].d(A)[sp].d(A)[sp].d(C)[sp].[moe](T)[sp].[moe](G)[sp].[moe](A)[sp].[moe](G)}$$$$V2.0	59%	
RNA1{[moe](G)[sp].[moe](C)[sp].[moe](A)[sp].d(G)[sp].d(A)[sp].d(G)[sp].d(G)[sp].d(T)[sp].d(G)[sp].d(A)[sp].d(A)[sp].d(G)[sp].[moe](C)[sp].[moe](G)[sp].[moe](A)[sp].[moe](A)}$$$$V2.0	58% and 64%	
RNA1{[moe](G)[sp].[moe](C)[sp].d(A)[sp].d(C)[sp].d(T)[sp].d(A)[sp].d(G)[sp].d(T)[sp].d(A)[sp].d(A)[sp].d(A)[sp].[moe](C)[sp].[moe](T)[sp].[moe](G)[sp].[moe](A)[sp].[moe](G)[sp].[moe](C)}$$$$V2.0	75% and 78%	
RNA1{[moe](G)[sp].[moe](C)[sp].d(A)[sp].d(C)[sp].d(T)[sp].d(A)[sp].d(G)[sp].d(T)[sp].d(A)[sp].d(A)[sp].d(A)[sp].[moe](C)[sp].[moe](T)[sp].[moe](G)[sp].[moe](A)[sp].[moe](G)}$$$$V2.0	54% and 47%	
RNA1{[moe](G)[sp].[moe](C)[sp].d(A)[sp].d(T)[sp].d(A)[sp].d(G)[sp].d(C)[sp].d(A)[sp].d(G)[sp].d(C)[sp].d(A)[sp].[moe](G)[sp].[moe](G)[sp].[moe](A)[sp].[moe](T)[sp].[moe](G)}$$$$V2.0	39% and 24%	
RNA1{[moe](G)[sp].[moe](G)[sp].[cEt](C)[sp].[cEt](A)[sp].d(T)[sp].d(A)[sp].d(G)[sp].d(C)[sp].d(A)[sp].d(G)[sp].d(C)[sp].d(A)[sp].d(G)[sp].[moe](G)[sp].[cEt](A)[sp].[moe](T)[sp].[moe](G)}$$$$V2.0		target mRNA inhibition (HepG2, 0.009375 µM): 27%; target mRNA inhibition (HepG2, 0.01875 µM): 29%; target mRNA inhibition (HepG2, 0.0375 µM): 45%; target mRNA inhibition (HepG2, 0.075 µM): 56%; target mRNA inhibition (HepG2, 0.15 µM): 78%; target mRNA inhibition (HepG2, 0.3 µM): 84%
RNA1{[moe](G)[sp].[moe](G)[sp].[moe](C)[sp].[moe](A)[sp].d(T)[sp].d(A)[sp].d(G)[sp].d(C)[sp].d(A)[sp].d(G)[sp].d(C)[sp].d(A)[sp].d(G)[sp].[moe](G)[sp].[moe](A)[sp].[moe](T)[sp].[moe](G)}$$$$V2.0	57% and 53%	
RNA1{[moe](G)[sp].[moe](G)[sp].[moe](C)[sp].[moe](A)[sp].d(T)[sp].d(A)[sp].d(G)[sp].d(C)[sp].d(A)[sp].d(G)[sp].d(C)[sp].d(A)[sp].d(G)[sp].[moe](G)[sp].[moe](A)[sp].[moe](T)}$$$$V2.0	57% and 50%	
